Measured values from patent publication US6130333A, “Bicyclic imidazolyl derivatives as phosphodiesterase inhibitors, pharmaceutical compositions and method of use” (Monsanto Company, priority 1998, dated 2000).

Legend:
[1] = system: cAMP PDE from bovine aorta; assay: Assay for inhibition of cAMP PDE; format: biochemical; conditions: bovine aorta enzyme; [3H]cAMP substrate; averaged where multiple testing
Experimental: (§1) Phosphodiesterase enzymes were partially purified according to the procedures reported by Francis, S. H., and Corbin, J. D. (1988) in Methods in Enzymology, Vol. 159, pp. 722-729, Academic Press, New York and Bradford, M. M. in (1976) Anal. Biochem. 72, 248-254. Specifically, the purification was accomplished by chromatography of a bovine aorta extract on a DEAE Tris-acryl column. The eluted fractions were assayed for the various specific activities. The specific enzyme activities were pooled and concentrated. […] The cGMP-specific phosphodiesterase was assayed in the presence of 1 μM cGMP. The calcium/calmodulin dependent enzyme activity was assayed in the presence of 1 μM cGMP, 0.5 units calmodulin (Sigma P-0270, phosphodiesterase 3',5'-cyclic nucleotide activator from bovine heart) per ml of reaction, and 100 μM Ca^2+.
(§2) Enzyme assays were performed in Millipore 96-well polystyrene microtiter plates in a total assay volume of 100 μL of buffer containing 100 mM Tris-HCl and 5 mM MgSO4 at pH 7.5. cGMP PDE inhibitor compounds were dissolved in DMSO at a concentration of 10 mM and then diluted into the assay to give a final concentration of DMSO in the assay of 1% which has no effect on the enzymatic reaction. The reaction mixture consisted of 10 μL diluted inhibitor, 10 μL of a solution of the appropriate phosphodiesterase enzyme preparation, and 60 μL buffer. The reaction was initiated by the addition 20 μL of 5μM [3H]cGMP (100,000 DPM/well). The tritiated cGMP nucleotides were obtained from DuPont/New England Nuclear Lifesciences Company, Boston, Mass. as an ammonium salt (NET-554 guanosine 3',5'-cyclic phosphate, [8,5'-^3 H]).
(§3) After a 30 minute incubation at room temperature the reaction was stopped by the addition of 50 μL of 210 mM ZnSO4 followed by an addition of 50 μL of freshly prepared 19 mM Ba(OH)2 to specifically precipitate the radiolabled 5'-nucleotide product. The Zn--Ba precipitate was filtered onto glass-fiber filters mats (Wallac, Filtermat A, 102×258 mm) using an automated 96-well harvester (TOMTEC Harvester 96®, MACH II). The precipitate was washed from the microtiterplate to the filtermat with a total volume of 1 ml/well of a wash buffer containing 1 mM NaOH and 100 mM NaCl. The filtermat were dried in a microwave oven and placed in a Wallac sample bag for use with the 1205 BetaPlate™. 10 ml of Beta Plate Scint (LKB) was added to the bag and allowed to diffuse throughout the filter. The radiolabel was then quantitated using a LKB/Wallac 1205 BetaPlate™ scintillation counter. Inhibitor dilution curves were created using six concentrations of the inhibitor in duplicate. IC50 values were determined from a linear regression of a Log Logit transformation of the data. M&B 22,948 (2-o-propoxyphenyl-8-azapurin-6-one) was used as the standard control inhibitor for cGMP PDE and was prepared according to U.S. Pat. No. 3,819,631.
The procedure for the inhibition of cAMP PDE was identical to the procedure for the cGMP-specific phosphodiesterase assay above, except that partially purified cAMP PDE from bovine aorta was collected as pooled from the DEAE tris-acryl column based upon its elution relative to cGMP-specific PDE as well as its specificity for cAMP by hydrolysis and then used. The partially purified cAMP PDE was stored as a concentrated solution at 4° C. This enzyme was diluted 1:30 with an assay buffer prior to use. A substrate solution of [^3 H]cAMP was added to 5 μM adenosine 3', 5'-cyclic monophosphate sodium salt in assay buffer to give a solution with a specific activity of 1000 CPM/pmole (100,000 CPM/20 μl). The reaction was initiated by the addition 20 μL of 5 μM [3H]cAMP (100,000 DPM/well). The tritiated cAMP nucleotides were obtained from DuPont/New England Nuclear Lifesciences Company, Boston, Mass. as an ammonium salt (NET-275 adenosine 3',5'-cyclic phosphate, (2,8-^3 H]). Ro 20-1724 was used as the standard control (obtained from Hoffmann LaRoche, Nutley, N.J.).

[2] = system: ca/calmodulin dependent cGMP PDE from bovine aorta; assay: Assay for inhibition of calcium/calmodulin dependent cGMP phosphodiesterase enzyme (Ca PDE); format: biochemical; conditions: CaCl2 and calmodulin, averaged where multiple testing, read-out: Ca GMP PDE IC50
Experimental: as §1, §2, §3
The procedure for the calcium/calmodulin dependent cGMP PDE assay was identical to the cGMP-specific phosphodiesterase assay described above, except for the following changes noted below. Partially purified ca/calmodulin dependent cGMP PDE enzyme from bovine aorta was collected as a pool based upon its elution relative to cAMP-dependent PDE and conformational changes introduced by the addition of 1 mM EDTA for 1 hour at 4° C. It was then diluted 1:1800 in assay buffer containing 143 μM CaCl2 and 0.7 units of calmodulin/ml and 70 μl of this enzyme solution was used per assay well. The standard control used was Vinpocetine purchased from Gedeon Richter LTD, Budapest, Hungary.

[3] = target: T1, cGMP-specific PDE from bovine aorta (Bos taurus, UniProt Q28156); assay: Assay for inhibition of cGMP PDE; format: biochemical; conditions: bovine aorta enzyme; 30 minute incubation at room temperature, pH 7.5; averaged where multiple testing
T1 construct: chromatography of a bovine aorta extract on a DEAE Tris-acryl column; from tissue; host or cells: bovine aorta
Experimental: as §1
The partially purified cGMP-specific PDE from bovine aorta was stored as a concentrated solution in glycerol at 4° C. Prior to use it was diluted approximately 1:3000 with an assay buffer containing 100 mM Tris-HCl and 5 mM MgSO4 at pH 7.5 to give approximately 10% conversion of cGMP substrate to GMP in a 30 minute reaction time.
as §2, §3

[4] = In vivo blood pressure measurement in rats (femoral artery catheter); set-up: species or system male Sprague Dawley rats; conditions: intraperitoneal injection
From the text: The FIGURE is a plot of mean blood pressure (mmHg) versus time (min) for anesthetized male Sprague Dawley rats (Charles River Laboratories, Wilmington, Mass.) following administration of a cyclic GMP phosphodiesterase inhibitor of this in vention by intraperitoneal injection.
Polyethylene catheters (PE50) were inserted into the femoral artery and vein of anesthetized male Sprague Dawley rats (Charles River Laboratories,Wilmington, Mass.) in order to monitor the mean arterial pressure and administer test compounds. Following surgery, the animals were place in individual restraining cages and allowed to regain consciousness. Infusion of 0.9% sodium chloride via the femoral vein (0.07 ml/kg/min) was begun and continued throughout the study period. Observations were begun approximately 90 minutes after the initiation of infusion to allow the animals to fully regain consciousness. Blood pressure was continuously monitored via the femoral artery with a pressure transducer (type 041-500-503; Cobe, Lakewood, Colo.) connected to a Grass Model 7E polygraph. Mean arterial pressure and heart rates were recorded at 3 minute intervals by a computerized data acquisition system. Cyclic GMP phosphodiesterase inhibitor (Example 41) was administered as an intraperitoneal injection, alternatively the inhibitor could have been administered directly into the catheter as an intravenous bolus.

[5] = rats; McMahon et al. 1989; cited from earlier work

| Structure (SMILES) | IC50 [1] [µM] | IC50 [2] [µM] | IC50 [3] [µM] | reduction in blood pressure [4] | mean arterial pressure [5] | urinary cGMP (and not cAMP) levels [5] |
| --- | --- | --- | --- | --- | --- | --- |
| c1ccc(Cn2c(-c3ccc4c(c3)OCO4)nc3ccccc32)cc1 [Example 25, 2-(1,3-Benzodioxol-5-yl)-1-phenylmethyl-1H-benzimidazole] | 12.4 | 75 | 0.011 | – | – | – |
| c1ccc2cc(Cn3c(-c4ccc5c(c4)OCO5)nc4ccccc43)ccc2c1 [Example 29, 2-(1,3-Benzodioxol-5-yl)-1-(2-naphthalenylmethyl)-1H-benzimidazole] | 5.2 | 60 | 0.024 | – | – | – |
| Fc1ccccc1Cn1c(-c2ccc3c(c2)OCO3)nc2ccccc21 [Example 30, 2-(1,3-Benzodioxol-5-yl)-1-(2-fluorophenylmethyl)-1H-benzimidazole] | > 100 | > 100 | 0.004 | – | – | – |
| c1ccc2c(c1)nc(-c1ccc3c(c1)OCO3)n2Cc1ccc2c(c1)OCO2 [Example 41, 2-(1,3-Benzodioxol-5-yl)-1-[(1,3-benzodioxol-5-yl)methyl]-1H-benzimidazole] | 11.9 | 64.5 | 0.003 | A reduction in blood pressure was observed | – | – |
| Cc1ccc(-c2nc3ccccc3n2Cc2ccc3c(c2)OCO3)cc1 [Example 42, 1-[(1,3-benzodioxol-5-yl)methyl]-2-(4-methylphenyl)-1H-benzimidazole] | 18 | 60 | 0.009 | – | – | – |
| c1ccc(Cn2c(-c3ccc4c(c3)OCO4)nc3cccnc32)cc1 [Example 43, 2-(1,3-Benzodioxol-5-yl)-3-(phenylmethyl)-3H-imidazo[4,5-b]pyridine] | 7.3 | > 100 | 0.003 | – | – | – |
| CCCOc1ccccc1-c1nc2[nH]nnc2c(=O)[nH]1 [M&B 22,948, 2-o-propoxyphenyl-8-azapurin-6-one] | – | – | – | – | dose-dependent reduction in the mean arterial pressure | increase in urinary cGMP (and not cAMP) levels |
